{"source": "paper PMC5166496", "about": "(International Journal of Biological Sciences, 2016)", "biological_target": "T1, SIRT1 (Homo sapiens, UniProt Q96EB6)", "T1 sequence (Q96EB6 2-747)": "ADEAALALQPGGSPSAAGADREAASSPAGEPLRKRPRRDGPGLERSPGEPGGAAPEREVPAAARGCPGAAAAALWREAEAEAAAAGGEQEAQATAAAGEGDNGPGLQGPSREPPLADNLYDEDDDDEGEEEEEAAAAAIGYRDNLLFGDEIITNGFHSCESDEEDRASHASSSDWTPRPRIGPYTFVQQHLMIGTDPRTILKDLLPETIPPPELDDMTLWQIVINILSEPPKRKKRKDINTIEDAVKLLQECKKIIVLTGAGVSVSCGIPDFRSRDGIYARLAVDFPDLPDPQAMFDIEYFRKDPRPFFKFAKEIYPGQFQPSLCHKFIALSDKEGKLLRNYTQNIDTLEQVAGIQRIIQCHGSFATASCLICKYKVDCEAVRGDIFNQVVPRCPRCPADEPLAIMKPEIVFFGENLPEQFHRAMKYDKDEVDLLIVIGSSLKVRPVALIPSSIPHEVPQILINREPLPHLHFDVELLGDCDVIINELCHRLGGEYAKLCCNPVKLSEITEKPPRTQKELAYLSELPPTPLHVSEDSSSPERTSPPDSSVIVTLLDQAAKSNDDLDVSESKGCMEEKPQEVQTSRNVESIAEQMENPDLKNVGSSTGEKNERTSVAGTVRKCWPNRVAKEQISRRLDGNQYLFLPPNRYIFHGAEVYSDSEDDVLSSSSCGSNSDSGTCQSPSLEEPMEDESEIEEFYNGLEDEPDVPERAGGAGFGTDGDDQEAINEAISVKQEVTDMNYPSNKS", "experiment": "SensoLyte […] fluorimetric SIRT1 deacetylase activity assay kit", "format": "biochemical"}
{"smiles": "CC(C)(C)c1cc(C=C2C(=O)NC(=S)NC2=O)cc(C(C)(C)C)c1O", "note": "[MHY2256, 5-(3,5-Di-tert-butyl-4-hydroxybenzylidene)-2-thioxodihydropyrimidine-4,6(1H,5H)-dione]", "values": [{"measurement": "IC50", "value": 270, "unit": "µM"}]}
